# According to patent EP4671247A1, “SUBSTITUTED PYRAZOLOPYRIMIDINE COMPOUND AND PHARMACEUTICAL USE THEREOF” (Japan Tobacco Inc., priority 2023, dated 2024):
# Target: T1, NLRP3 inflammasome (Homo sapiens, UniProt Q96P20)
# T1 construct: host or cells: THP1-Null cells (PMA-differentiated, LPS-primed, nigericin-stimulated)
# Test: Evaluation of NLRP3 inflammasome inhibitory activity (inhibition of IL-1β production in LPS/Nigericin-stimulated THP1-Null cells, AlphaLISA)
# Type: cell-based
# Conditions: IC50, IL-1β production in THP1-Null cells; PMA, 1 µg/mL Lipopolysaccharides 3 hours, Nigericin 7.5 µmol/L 1.5 hours
# Method: The NLRP3 inflammasome inhibitory activity of test compounds were evaluated on the basis of the inhibitory activity of the IL-1β production in THP1-Null cells (Product Number: thp-null, InvivoGen).
# The supernatant of the culture was removed, and thereto was added media for assay (25 µL/well) containing 1 µg/mL Lipopolysaccharides (Product Number: L2654, Sigma-Aldrich (registered trademark)). […] The supernatant of the culture was removed. […] A solution containing a test compound (20 µL/well) was added to test compound-setting wells. […] The supernatant of the culture was cryonically stored (set at -20°C) until measurement of IL-1β.
# The amount of IL-1β in the culture supernatant was quantitated with AlphaLISA (registered trademark) Human IL-1β Detection Kit (Product Number: AL220C, Perkin Elmer). Fluorescence intensity was measured with a microplate reader EnSpier (Model number: 2300-00J, Perkin Elmer) or EnSight (Model number: HH34000000, Perkin Elmer) according to procedure manuals attached thereto. Inhibition rates of the test compound-setting wells were calculated on the basis of 100% for the blank-setting wells and 0% for the control-setting wells.
# T1 sequence (Q96P20 whole entry): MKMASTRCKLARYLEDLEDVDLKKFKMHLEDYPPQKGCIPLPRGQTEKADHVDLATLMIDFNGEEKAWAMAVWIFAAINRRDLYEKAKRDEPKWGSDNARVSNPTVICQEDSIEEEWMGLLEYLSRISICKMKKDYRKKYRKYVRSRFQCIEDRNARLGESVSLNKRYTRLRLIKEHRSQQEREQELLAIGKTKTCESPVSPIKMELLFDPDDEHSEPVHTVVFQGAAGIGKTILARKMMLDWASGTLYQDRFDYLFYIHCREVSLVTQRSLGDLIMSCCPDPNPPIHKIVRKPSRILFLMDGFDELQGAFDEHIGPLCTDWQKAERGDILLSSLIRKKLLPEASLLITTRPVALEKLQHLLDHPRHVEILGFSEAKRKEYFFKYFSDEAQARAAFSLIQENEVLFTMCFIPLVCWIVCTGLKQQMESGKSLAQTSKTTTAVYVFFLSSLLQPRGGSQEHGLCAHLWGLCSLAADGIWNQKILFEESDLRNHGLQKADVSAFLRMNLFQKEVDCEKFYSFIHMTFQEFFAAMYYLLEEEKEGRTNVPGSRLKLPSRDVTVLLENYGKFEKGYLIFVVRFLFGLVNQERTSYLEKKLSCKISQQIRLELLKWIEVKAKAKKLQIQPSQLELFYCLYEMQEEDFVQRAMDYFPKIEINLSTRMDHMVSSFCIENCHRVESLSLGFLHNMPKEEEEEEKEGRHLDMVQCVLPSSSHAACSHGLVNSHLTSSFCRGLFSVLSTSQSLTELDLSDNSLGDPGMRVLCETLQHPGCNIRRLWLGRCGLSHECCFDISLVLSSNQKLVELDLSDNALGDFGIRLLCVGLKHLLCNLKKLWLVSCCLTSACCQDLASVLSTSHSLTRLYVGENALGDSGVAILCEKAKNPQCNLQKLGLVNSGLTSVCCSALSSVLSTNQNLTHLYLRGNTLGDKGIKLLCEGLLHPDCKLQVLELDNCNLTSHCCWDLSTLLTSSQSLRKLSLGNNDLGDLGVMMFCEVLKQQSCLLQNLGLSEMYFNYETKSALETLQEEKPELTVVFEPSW
row,SMILES,IC50
1,Cc1cc(Br)cc(C)c1-n1cc2c(=O)[nH]c(C3CC4CCN3CC4)nc2n1 (racemic) [Example 100],54 nM

# Same assay, conditions: IL-1β production in THP1-Null cells; PMA, 1 µg/mL Lipopolysaccharides 3 hours, Nigericin 7.5 µmol/L 1.5 hours
row,SMILES,IC50
1,Cc1cc(C2CC2)cc(C)c1-n1cc2c(=O)[nH]c(C3CCOC3)nc2n1 (racemic) [Example 29],9 nM
2,"Cc1cc(OC(F)F)cc(C)c1-n1cc2c(=O)[nH]c([C@@H]3C[C@H]3F)nc2n1 (single isomer, unassigned) [Example 172]",8 nM
3,"Cc1cc(C2CC2)cc(C)c1-n1cc2c(=O)[nH]c(C(O)C(F)F)nc2n1 (single isomer, unassigned) [Example 169]",26 nM
4,"Cc1cc(OC(F)F)cc(C)c1-n1cc2c(=O)[nH]c(C3COCC3F)nc2n1 (single isomer, unassigned) [Example 182]",8 nM
5,Cc1cc(C2CC2)cc(C)c1-n1cc2c(=O)[nH]c(C(C)O)nc2n1 (racemic) [Example 123],23 nM
6,"Cc1cc(C2CC2)cc(C)c1-n1cc2c(=O)[nH]c(C(C)O)nc2n1 (single isomer, unassigned) [Example 157]",340 nM
7,"Cc1cc(OC(F)F)cc(C)c1-n1cc2c(=O)[nH]c(C3CCOCCO3)nc2n1 (single isomer, unassigned) [Example 194]",100 nM
8,"Cc1cc(C2CC2)cc(C)c1-n1cc2c(=O)[nH]c(C(O)C(F)F)nc2n1 (single isomer, unassigned) [Example 170]",510 nM
9,"Cc1cc(C(C)(F)F)cc(C)c1-n1cc2c(=O)[nH]c(C3(F)CCOC3)nc2n1 (single isomer, unassigned) [Example 129]",50 nM
10,"Cc1cc(C(C)(F)F)cc(C)c1-n1cc2c(=O)[nH]c(C3(F)CCOC3)nc2n1 (single isomer, unassigned) [Example 130]",240 nM
11,"Cc1cc(OC(F)F)cc(C)c1-n1cc2c(=O)[nH]c(C3CCOCC3F)nc2n1 (single isomer, unassigned) [Example 177]",24 nM
12,"Cc1cc(C2CC2)cc(C)c1-n1cc2c(=O)[nH]c(C3(F)CCOC3)nc2n1 (single isomer, unassigned) [Example 79]",75 nM

# Same assay, conditions: IL-1β production in THP1-Null cells; PMA, 1 µg/mL Lipopolysaccharides 3 hours, Nigericin 7.5 µmol/L 1.5 hours; read-out: IC50
row,SMILES,IC50
1,COCc1cc(C2CC2)ccc1-n1cc2c(=O)[nH]c(C3CC3)nc2n1 [Example 25],44 nM
2,"Cc1cc(C2CC2)cc(C)c1-n1cc2c(=O)[nH]c(C3CCOCCO3)nc2n1 (single isomer, unassigned) [Example 179, 2-(4-cyclopropyl-2,6-dimethylphenyl)-6-(1,4-dioxepan-5-yl)-2,5-dihydro-4H-pyrazolo[3,4-d]pyrimidin-4-one]",51 nM
3,Cc1cc(Br)cc(C)c1-n1cc2c(=O)[nH]c(C3CCCCC3)nc2n1 [Example 71],11 nM
4,Cc1cc(C(C)(F)F)cc(C)c1-n1cc2c(=O)[nH]c(CCO)nc2n1 [Example 208],66 nM
5,Cc1cc(Br)cc(C)c1-n1cc2c(=O)[nH]c(C3CCOCC3)nc2n1 [Example 81],4 nM
6,"Cc1cc(C(C)(F)F)cc(C)c1-n1cc2c(=O)[nH]c([C@H]3C[C@@H]3F)nc2n1 (racemic) [Example 142, 2-[4-(1,1-difluoroethyl)-2,6-dimethylphenyl]-6-[(1RS,2SR)-2-fluorocyclopropyl]-2,5-dihydro-4H-pyrazolo[3,4-d]pyrimidin-4-one]",17 nM
7,Cc1cc(C2CC2)cc(C)c1-n1cc2c(=O)[nH]c(C3CCC3)nc2n1 [Example 22],12 nM
8,Cc1cc(Br)cc(C)c1-n1cc2c(=O)[nH]c(C3CC3C(N)=O)nc2n1 (racemic) [Example 150],18 nM
9,COc1cc(C)c(-n2cc3c(=O)[nH]c(C45CC(CO)(CO4)C5)nc3n2)c(C)c1 [Example 94],220 nM
10,COC1(c2nc3nn(-c4c(C)cc(Br)cc4C)cc3c(=O)[nH]2)CCOC1 (racemic) [Example 86],350 nM
11,Cc1cc(Br)cc(C)c1-n1cc2c(=O)[nH]c(Cn3cccn3)nc2n1 [Example 62],230 nM
12,CCc1nc2nn(-c3ccc(C)cc3C)cc2c(=O)[nH]1 [Example 8],230 nM
13,COc1cc(C)c(-n2cc3c(=O)[nH]c(C4CC4)nc3n2)c(C)c1 [Example 53],140 nM
14,Cc1cc(Br)cc(C)c1-n1cc2c(=O)[nH]c(C(O)C(F)(F)F)nc2n1 (racemic) [Example 138],120 nM
15,Cc1c(-n2cc3c(=O)[nH]c(C4CCCC4)nc3n2)c(C(F)(F)F)nn1C(C)C [Example 65],300 nM
16,COCc1nc2nn(-c3c(C)cc(C(C)(F)F)cc3C)cc2c(=O)[nH]1 [Example 200],75 nM
17,COc1cc(C2CC2)ccc1-n1cc2c(=O)[nH]c(C3CC3)nc2n1 [Example 26],76 nM
18,"Cc1cc(Br)cc(C)c1-n1cc2c(=O)[nH]c(C3CCOCC3O)nc2n1 (single isomer, unassigned) [Example 104]",15 nM
19,Cc1cc(Br)cc(C)c1-n1cc2c(=O)[nH]c(C34CCC(CO3)C4)nc2n1 (racemic) [Example 117],240 nM
20,Cc1cc(C2CC2)cc(C)c1-n1cc2c(=O)[nH]c(C34COC(C)(C3)C4)nc2n1 [Example 52],40 nM
21,Cc1nn(C2CCC2)c(C)c1-n1cc2c(=O)[nH]c(C3CC3)nc2n1 [Example 59],1700 nM
22,Cc1nc2nn(-c3c(C)cc(C4CC4)cc3C)cc2c(=O)[nH]1 [Example 19],170 nM
23,COCCc1nc2nn(-c3c(C)cc(C4CC4)cc3C)cc2c(=O)[nH]1 [Example 99],43 nM

row,SMILES,IC50
1,Cc1ccc(-n2cc3c(=O)[nH]c(C4CCCOC4)nc3n2)c(C)c1 (racemic) [Example 34],200 nM
2,Cc1ccccc1-n1cc2c(=O)[nH]c(C3CCCC3)nc2n1 [Example 1],2300 nM
3,Cc1cc(Br)cc(C)c1-n1cc2c(=O)[nH]c(C(O)C3CC3)nc2n1 (racemic) [Example 140],46 nM
4,Cc1cc(C2CC2)cc(C)c1-n1cc2c(=O)[nH]c(C3CC3F)nc2n1 (racemic) [Example 93],8 nM
5,COCc1cc(OC(F)F)cc(C)c1-n1cc2c(=O)[nH]c(C3CC3)nc2n1 [Example 76],82 nM
6,Cc1cc(C2CC2)cc(C)c1-n1nc2nc(C3CC3)[nH]c(=O)c2c1CF [Example 84],15 nM
7,Cc1cc(C2CC2)cc(C)c1-n1cc2c(=O)[nH]c(C3CC3CO)nc2n1 (racemic) [Example 124],8 nM
8,CCOCCc1nc2nn(-c3c(C)cc(Br)cc3C)cc2c(=O)[nH]1 [Example 98],98 nM
9,Cc1cc(C2CC2)cc(C)c1-n1cc2c(=O)[nH]c(C3(C)COC3)nc2n1 [Example 44],47 nM
10,Cc1cc(C2CC2)cc(C)c1-n1cc2c(=O)[nH]c(C(=O)NCC(F)F)nc2n1 [Example 204],50 nM
11,Cc1cc(Br)cc(C)c1-n1cc2c(=O)[nH]c(C3CC(F)(F)CO3)nc2n1 (racemic) [Example 189],71 nM
12,Cc1cc(Br)cc(C)c1-n1cc2c(=O)[nH]c(CC(O)C(F)(F)F)nc2n1 (racemic) [Example 126],24 nM
13,Cc1cc(OC(F)F)cc(C)c1-n1cc2c(=O)[nH]c(C3CCOCC3)nc2n1 [Example 64],22 nM
14,Cc1cc(Br)cc(C)c1-n1cc2c(=O)[nH]c(CC3CC3)nc2n1 [Example 161],10 nM
15,O=c1[nH]c(C2CC2)nc2nn(-c3ccc(C4CC4)cc3C(F)(F)F)cc12 [Example 198],11 nM
16,Cc1cc(Br)cc(C)c1-n1cc2c(=O)[nH]c(C3COCCO3)nc2n1 (racemic) [Example 28],190 nM
17,Cc1cc(C(C)(F)F)cc(C)c1-n1cc2c(=O)[nH]c(C3CC3(F)F)nc2n1 (racemic) [Example 125],24 nM
18,"Cc1cc(OC(F)F)cc(C)c1-n1cc2c(=O)[nH]c(C(C)O)nc2n1 (racemic) [Example 141, (RS)-2-{4-(difluoromethoxy)-2,6-dimethylphenyl}-6-(1-hydroxyethyl)-2,5-dihydro-4H-pyrazolo[3,4-d]pyrimidin-4-one]",61 nM
19,CC(=O)c1c2c(=O)[nH]c(C3COC3)nc2nn1-c1c(C)cc(Br)cc1C [Example 72],57 nM
20,COCCc1nc2nn(-c3ccc(C)cc3C)cc2c(=O)[nH]1 [Example 9],1100 nM
21,Cc1cc(C(C)(F)F)cc(C)c1-n1cc2c(=O)[nH]c(C3(F)CC3)nc2n1 [Example 162],57 nM
22,Cc1cc(C2CC2)cc(C)c1-n1cc2c(=O)[nH]c(C3CC(F)(F)CCO3)nc2n1 (racemic) [Example 197],36 nM
23,Cc1cc(OC(F)F)cc(C)c1-n1cc2c(=O)[nH]c(C3CCOC3)nc2n1 (racemic) [Example 63],45 nM

# Same assay, conditions: test compound at 0.002 µM; IL-1β production in THP1-Null cells
row,SMILES,inhibition at 0.002 µM
1,Cc1cc(OC(F)F)cc(C)c1-n1cc2c(=O)[nH]c(C3=COCC3)nc2n1 [Example 175],54%

# Same assay, conditions: test compound at 24 µM; IL-1β production in THP1-Null cells
row,SMILES,inhibition at 24 µM
1,"COc1nc(C)nc2nn(-c3c(C)cc(Br)cc3C)cc12 [Example 210, 2-(4-bromo-2,6-dimethylphenyl)-4-methoxy-6-methyl-2H-pyrazolo[3,4-d]pyrimidine]",9%
2,COc1nc(C)nc2nn(-c3ccc(C)cc3C)cc12 [Example 12],26%

# Same assay, conditions: test compound at 30 µM; IL-1β production in THP1-Null cells
row,SMILES,inhibition at 30 µM
1,Cc1ccc(-n2cc3c(=O)[nH]c(C(F)(F)F)nc3n2)c(C)c1 [Example 7],44%
